US5416111A, “Cyano-containing n-phenyl-amino-terminated non-peptidyl α-succinamidoacyl aminodiols as anti-hypertensive agents” (G.D. Searle & Co., priority 1993, dated 1995)

Assays:
hog renin = hog renin inhibition assay in vitro (angiotensin I produced, radioimmunoassay); assay type: biochemical; conditions: 20 micromolar synthetic tetradecapeptide substrate, pH 7.4, one hour at 37° C.
Experimental: (§1) Compounds of Formula I were evaluated as inhibitors of human renin in an in vitro assay, as follows: This human renin inhibition test has been previously described in detail [Papaioannou, et al., Clinical and Experimental Hypertension, A7(9), 1243-1257 (1985)]. Human renin was obtained from the National Institute for Biological Standards, London. In a total volume of 0.25 mL 100 mM Tris-acetate buffer at pH 7.4, 25×10-6 Goldblatt units of renin, 0.05 mL of plasma from human volunteers taking oral contraceptives, 6.0 mM sodium EDTA, 2.4 mM phenylmethyl sulfonyl fluoride, 1.5 mM 8-hydroxyquinoline, 0.4 mg/mL BSA, and 0.024 mg/mL neomycin sulfate were incubated for two hours at 37° C. in the presence or absence of renin inhibitors. The produced angiotensin I was determined by radioimmunoassay (New England Nuclear kit). Compounds to be assayed were solubilized in either ethyl alcohol or DMSO and diluted with 100 mM Tris-acetate buffer at pH 7.4 to the appropriate concentration. The final concentration of organic solvent in the reaction mixture was less than 1%. Control incubations at 37° C. were used to correct for effects of organic solvent on renin activity.
The hog renin inhibition assay was performed in a manner similar to the human renin assay, with the following modifications. […] The amount of angiotensin I produced was determined as for the human renin inhibition assay.

human renin = molecular target: T1, human renin (Homo sapiens, UniProt P00797); assay: human renin inhibition assay in vitro (angiotensin I produced, radioimmunoassay); assay type: biochemical; conditions: human plasma, pH 7.4, two hours at 37° C.
T1 construct: purchased National Institute for Biological Standards, London
T1 sequence (P00797 67-406): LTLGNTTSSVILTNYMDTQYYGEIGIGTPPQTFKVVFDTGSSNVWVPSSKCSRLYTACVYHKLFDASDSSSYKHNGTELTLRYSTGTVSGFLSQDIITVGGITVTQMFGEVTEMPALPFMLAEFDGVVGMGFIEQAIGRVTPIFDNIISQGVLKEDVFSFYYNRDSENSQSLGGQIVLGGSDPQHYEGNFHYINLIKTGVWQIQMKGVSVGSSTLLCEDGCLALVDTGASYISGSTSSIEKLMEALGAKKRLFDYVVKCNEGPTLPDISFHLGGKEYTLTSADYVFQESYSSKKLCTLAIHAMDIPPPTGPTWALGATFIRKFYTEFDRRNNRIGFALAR
Experimental: as §1

- IC50 (hog renin): 2800 nM
- IC50 (human renin): 740 nM
SMILES: CC(C)C[C@H](NC(=O)C(CC(=O)N1CCOCC1)Cc1cccc2ccccc12)C(=O)N[C@@H](CC1CCCCC1)[C@@H](O)CO (stereo partly drawn) [Example 9, 3-(N-morpholinocarbonyl)-2-(R,S)-(1-naphthylmethyl)-propionyl-L-leucinamide of (2S ,3R)-2-amino-1-cyclohexyl-3,4-dihydroxybutane]
